From US20240132431A1, “METHOD FOR ALKYLATING ACIDIC FUNCTIONAL GROUP” (Chugai Seiyaku Kabushiki Kaisha, priority 2021, published 2024)

Target: T1, Bcl-2 protein (Recombinant Human Bcl-2 Protein) (Homo sapiens, UniProt P10415)
T1 construct: purchased Novus NBP2-34889
Assay: Binding evaluation of mixture library compounds to Bcl-2 using AS-MS (affinity selection mass spectrometry)
Conditions: AS-MS, mixture library, Bcl-2, ASMS Ratio(%)=(A−C)/B×100; for ASMS ratio (%) n = 1: replicate n = 1; for ASMS ratio (%) n = 2: replicate n = 2
In short: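 Bcl-2 binding is scored from LC/MS signal retained with protein through gel-filtration spin columns, normalised to unfiltered and protein-free controls. Incubation: 20 μM protein, […] per compound, 1 h, 23° C.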

T1 sequence (P10415 whole entry): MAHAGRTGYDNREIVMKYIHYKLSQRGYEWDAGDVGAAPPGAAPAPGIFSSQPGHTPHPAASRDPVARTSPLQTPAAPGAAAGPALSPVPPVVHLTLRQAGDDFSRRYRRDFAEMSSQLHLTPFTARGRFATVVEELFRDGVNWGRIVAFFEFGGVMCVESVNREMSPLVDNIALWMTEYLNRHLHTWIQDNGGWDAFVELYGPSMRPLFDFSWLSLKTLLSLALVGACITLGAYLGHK

| Structure (SMILES) | ASMS ratio (%) n = 1 | ASMS ratio (%) n = 2 |
| --- | --- | --- |
| CCOc1cncc(-c2ccc(C(=O)N3CCN(c4ccc(C(=O)NS(=O)(=O)CC56CC7CC(CC(C7)C5)C6)cc4)CC3)c3ccccc23)c1 [B2A036-01, N-(1-Adamantylmethylsulfonyl)-4-[4-[4-(5-ethoxypyridin-3-yl)naphthalene-1-carbonyl]piperazin-1-yl]benzamide] | 2.0% | −0.4% |
| CCOc1cccc(-c2cc(C(=O)N3CCN(c4ccc(C(=O)NS(=O)(=O)CC56CC7CC(CC(C7)C5)C6)cc4)CC3)cc(C(C)(C)C)c2)c1 [B2A037-01, N-(1-Adamantylmethylsulfonyl)-4-[4-[3-tert-butyl-5-(3-ethoxyphenyl)benzoyl]piperazin-1-yl]benzamide] | 3.0% | 0.0% |
| CCOc1cncc(-c2cc(C(=O)N3CCN(c4ccc(C(=O)NS(=O)(=O)CC56CC7CC(CC(C7)C5)C6)cc4)CC3)cc(C(C)(C)C)c2)c1 [B2A038-01, N-(1-Adamantylmethylsulfonyl)-4-[4-[3-tert-butyl-5-(5-ethoxypyridin-3-yl)benzoyl]piperazin-1-yl]benzamide] | 1.8% | −3.5% |
| CCOc1cccc(-c2cc(C(=O)N3CCN(c4ccc(C(=O)NS(=O)(=O)CC56CC7CC(CC(C7)C5)C6)cc4)CC3)cc(C(F)(F)F)c2)c1 [B2A039-01, N-(1-Adamantylmethylsulfonyl)-4-[4-[3-(3-ethoxyphenyl)-5-(trifluoromethyl)benzoyl]piperazin-1-yl]benzamide] | 7.4% | −10.4% |
| CCOc1cncc(-c2cc(C(=O)N3CCN(c4ccc(C(=O)NS(=O)(=O)CC56CC7CC(CC(C7)C5)C6)cc4)CC3)cc(C(F)(F)F)c2)c1 [B2A040-01, N-(1-Adamantylmethylsulfonyl)-4-[4-[3-(5-ethoxypyridin-3-yl)-5-(trifluoromethyl)benzoyl]piperazin-1-yl]benzamide] | 0.0% | 0.0% |
| CCOc1cccc(C#Cc2cc(C(=O)N3CCN(c4ccc(C(=O)NS(=O)(=O)CC56CC7CC(CC(C7)C5)C6)cc4)CC3)cc(C(F)(F)F)c2)c1 [B2A041-01, N-(1-Adamantylmethylsulfonyl)-4-[4-[3-[2-(3-ethoxyphenyl)ethynyl]-5-(trifluoromethyl)benzoyl]piperazin-1-yl]benzamide] | 0.0% | −3.7% |
| CCOc1cncc(C#Cc2cc(C(=O)N3CCN(c4ccc(C(=O)NS(=O)(=O)CC56CC7CC(CC(C7)C5)C6)cc4)CC3)cc(C(F)(F)F)c2)c1 [B2A042-01, N-(1-Adamantylmethylsulfonyl)-4-[4-[3-[2-(5-ethoxypyridin-3-yl)ethynyl]-5-(trifluoromethyl)benzoyl]piperazin-1-yl]benzamide] | 10.1% | −0.9% |
| CCOc1cccc(-c2cnn(-c3cc(C(=O)N4CCN(c5ccc(C(=O)NS(=O)(=O)CC67CC8CC(CC(C8)C6)C7)cc5)CC4)cc(C(F)(F)F)c3)c2)c1 [B2A043-01, N-(1-Adamantylmethylsulfonyl)-4-[4-[3-[4-(3-ethoxyphenyl)pyrazol-1-yl]-5-(trifluoromethyl)benzoyl]piperazin-1-yl]benzamide] | 14.0% | 4.4% |
| CCOc1cncc(-c2cnn(-c3cc(C(=O)N4CCN(c5ccc(C(=O)NS(=O)(=O)CC67CC8CC(CC(C8)C6)C7)cc5)CC4)cc(C(F)(F)F)c3)c2)c1 [B2A044-01, N-(1-Adamantylmethylsulfonyl)-4-[4-[3-[4-(5-ethoxypyridin-3-yl)pyrazol-1-yl]-5-(trifluoromethyl)benzoyl]piperazin-1-yl]benzamide] | 0.7% | −0.2% |
| CCOc1cccc(-c2ccccc2CN2CCN(c3ccc(C(=O)NS(=O)(=O)CC45CC6CC(CC(C6)C4)C5)cc3)CC2)c1 [B2A045-01, N-(1-Adamantylmethylsulfonyl)-4-[4-[[2-(3-ethoxyphenyl)phenyl]methyl]piperazin-1-yl]benzamide] | 6.5% | −2.9% |
| CCOc1cncc(-c2ccccc2CN2CCN(c3ccc(C(=O)NS(=O)(=O)CC45CC6CC(CC(C6)C4)C5)cc3)CC2)c1 [B2A046-01, N-(1-Adamantylmethylsulfonyl)-4-[4-[[2-(5-ethoxypyridin-3-yl)phenyl]methyl]piperazin-1-yl]benzamide] | −2.7% | −22.1% |
| CCOc1cccc(-c2ccc(CN3CCN(c4ccc(C(=O)NS(=O)(=O)CC56CC7CC(CC(C7)C5)C6)cc4)CC3)cc2C)c1 [B2A047-01, N-(1-Adamantylmethylsulfonyl)-4-[4-[[4-(3-ethoxyphenyl)-3-methylphenyl]methyl]piperazin-1-yl]benzamide] | 9.7% | 0.4% |
| CCOc1cncc(-c2ccc(CN3CCN(c4ccc(C(=O)NS(=O)(=O)CC56CC7CC(CC(C7)C5)C6)cc4)CC3)cc2C)c1 [B2A048-01, N-(1-Adamantylmethylsulfonyl)-4-[4-[[4-(5-ethoxypyridin-3-yl)-3-methylphenyl]methyl]piperazin-1-yl]benzamide] | 18.2% | 2.1% |
| CCOc1cccc(-c2ccc(CN3CCN(c4ccc(C(=O)NS(=O)(=O)CC56CC7CC(CC(C7)C5)C6)cc4)CC3)c(CC)c2)c1 [B2A049-01, N-(1-Adamantylmethylsulfonyl)-4-[4-[[4-(3-ethoxyphenyl)-2-ethylphenyl]methyl]piperazin-1-yl]benzamide] | −3.0% | 6.2% |
| CCOc1cncc(-c2ccc(CN3CCN(c4ccc(C(=O)NS(=O)(=O)CC56CC7CC(CC(C7)C5)C6)cc4)CC3)c(CC)c2)c1 [B2A050-01, N-(1-Adamantylmethylsulfonyl)-4-[4-[[4-(5-ethoxypyridin-3-yl)-2-ethylphenyl]methyl]piperazin-1-yl]benzamide] | −1.1% | 1.6% |
| CCOc1cccc(-c2ccc(CN3CCN(c4ccc(C(=O)NS(=O)(=O)CC56CC7CC(CC(C7)C5)C6)cc4)CC3)cc2F)c1 [B2A051-01] | −0.3% | 3.6% |
| CCOc1cncc(-c2ccc(CN3CCN(c4ccc(C(=O)NS(=O)(=O)CC56CC7CC(CC(C7)C5)C6)cc4)CC3)cc2F)c1 [B2A052-01, N-(1-Adamantylmethylsulfonyl)-4-[4-[[4-(5-ethoxypyridin-3-yl)-3-fluorophenyl]methyl]piperazin-1-yl]benzamide] | 0.0% | 0.0% |
| CCOc1cccc(-c2ccc(CN3CCN(c4ccc(C(=O)NS(=O)(=O)CC56CC7CC(CC(C7)C5)C6)cc4)CC3)c(OC)c2)c1 [B2A053-01, N-(1-Adamantylmethylsulfonyl)-4-[4-[[4-(3-ethoxyphenyl)-2-methoxyphenyl]methyl]piperazin-1-yl]benzamide] | 0.0% | 0.0% |
| CCOc1cncc(-c2ccc(CN3CCN(c4ccc(C(=O)NS(=O)(=O)CC56CC7CC(CC(C7)C5)C6)cc4)CC3)c(OC)c2)c1 [B2A054-01, N-(1-Adamantylmethylsulfonyl)-4-[4-[[4-(5-ethoxypyridin-3-yl)-2-methoxyphenyl]methyl]piperazin-1-yl]benzamide] | 17.5% | −0.9% |
| CCOc1cccc(-c2cc(CN3CCN(c4ccc(C(=O)NS(=O)(=O)CC56CC7CC(CC(C7)C5)C6)cc4)CC3)cc(OCC)c2)c1 [B2A055-01, N-(1-Adamantylmethylsulfonyl)-4-[4-[[3-ethoxy-5-(3-ethoxyphenyl)phenyl]methyl]piperazin-1-yl]benzamide] | 5.8% | −7.3% |
| CCOc1cncc(-c2cc(CN3CCN(c4ccc(C(=O)NS(=O)(=O)CC56CC7CC(CC(C7)C5)C6)cc4)CC3)cc(OCC)c2)c1 [B2A056-01, N-(1-Adamantylmethylsulfonyl)-4-[4-[[3-ethoxy-5-(5-ethoxypyridin-3-yl)phenyl]methyl]piperazin-1-yl]benzamide] | −3.9% | 0.2% |
| CCOc1cccc(-c2cc(CN3CCN(c4ccc(C(=O)NS(=O)(=O)CC56CC7CC(CC(C7)C5)C6)cc4)CC3)cc(OC(C)C)c2)c1 [B2A057-01, N-(1-Adamantylmethylsulfonyl)-4-[4-[[3-(3-ethoxyphenyl)-5-propan-2-yloxyphenyl]methyl]piperazin-1-yl]benzamide] | −4.8% | −5.3% |
| CCOc1cncc(-c2cc(CN3CCN(c4ccc(C(=O)NS(=O)(=O)CC56CC7CC(CC(C7)C5)C6)cc4)CC3)cc(OC(C)C)c2)c1 [B2A058-01, N-(1-Adamantylmethylsulfonyl)-4-[4-[[3-(5-ethoxypyridin-3-yl)-5-propan-2-yloxyphenyl]methyl]piperazin-1-yl]benzamide] | 4.8% | −10.6% |
| CCOc1cccc(-c2cc(OC)c(CN3CCN(c4ccc(C(=O)NS(=O)(=O)CC56CC7CC(CC(C7)C5)C6)cc4)CC3)c(OC)c2)c1 [B2A059-01, N-(1-Adamantylmethylsulfonyl)-4-[4-[[4-(3-ethoxyphenyl)-2,6-dimethoxyphenyl]methyl]piperazin-1-yl]benzamide] | 0.0% | −42.2% |
| CCOc1cncc(-c2cc(OC)c(CN3CCN(c4ccc(C(=O)NS(=O)(=O)CC56CC7CC(CC(C7)C5)C6)cc4)CC3)c(OC)c2)c1 [B2A060-01, N-(1-Adamantylmethylsulfonyl)-4-[4-[[4-(5-ethoxypyridin-3-yl)-2,6-dimethoxyphenyl]methyl]piperazin-1-yl]benzamide] | 0.0% | 0.0% |
